#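 Each compound was tested at five concentrations against cells in 96-well plates for 48 hours. Abbreviation: GI50, concentration required for 50% inhibition of growth. TGI: concentration producing complete growth inhibition.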
# Assays:
# Test in all cases: inhibition of tumour cell growth, NCI panel, 48 h
# CCRF-CEM leukemia = system: CCRF-CEM leukemia
# LOX IMVI melanoma = system: LOX IMVI melanoma
# EKVX NSCLC = system: EKVX NSCLC
# 786-0 renal = system: 786-0 renal
# A549 NSCLC = system: A549 NSCLC
# OVCAR-8 ovarian = system: OVCAR-8 ovarian
# MALME-3M melanoma = system: MALME-3M melanoma
# SF-539 CNS = system: SF-539 CNS
# PC-3 prostate = system: PC-3 prostate
# SK-MEL-2 melanoma = system: SK-MEL-2 melanoma
# HS 578T breast = system: HS 578T breast
# UO-31 renal = system: UO-31 renal
# NCI-H23 lung = system: NCI-H23 lung
# MCF7 breast = system: MCF7 breast
# HT29 colon = system: HT29 colon
# SK-MEL-28 melanoma = system: SK-MEL-28 melanoma
# TK-10 renal = system: TK-10 renal
# UACC-257 melanoma = system: UACC-257 melanoma
# ACHN renal = system: ACHN renal
# RPMI-8226 leukemia = system: RPMI-8226 leukemia
# HCT-15 colon = system: HCT-15 colon
# OVCAR-4 ovarian = system: OVCAR-4 ovarian
# SNB-75 CNS = system: SNB-75 CNS
# HOP-62 NSCLC = system: HOP-62 NSCLC
# OVCAR-3 ovarian = system: OVCAR-3 ovarian
# M14 melanoma = system: M14 melanoma
# SF-268 CNS = system: SF-268 CNS
# HCT-116 colon = system: HCT-116 colon
# MDA-MB-231 breast = system: MDA-MB-231 breast
# HOP-92 NSCLC = system: HOP-92 NSCLC
# A498 renal = system: A498 renal
# RXF 393 renal = system: RXF 393 renal
# U251 CNS = system: U251 CNS
# K-562 leukemia = system: K-562 leukemia
# BT-549 breast = system: BT-549 breast
# HL-60(TB) leukemia = system: HL-60(TB) leukemia
# SF-295 CNS = system: SF-295 CNS
# SK-MEL-5 melanoma = system: SK-MEL-5 melanoma
# NCI-H460 lung = system: NCI-H460 lung
# SK-OV-3 ovarian = system: SK-OV-3 ovarian
# HCC-2998 colon = system: HCC-2998 colon
# MDA-MB-435 = system: MDA-MB-435
# KM12 colon = system: KM12 colon
# DU-145 prostate = system: DU-145 prostate
# T-47D breast = system: T-47D breast
# UACC-62 melanoma = system: UACC-62 melanoma
# OVCAR-5 ovarian = system: OVCAR-5 ovarian
# SW-620 colon = system: SW-620 colon
# MOLT-4 leukemia = system: MOLT-4 leukemia
# NCI-H226 lung = system: NCI-H226 lung
smiles,measurement,setting,value
COc1ccc(SC2c3ccc(C)cc3Oc3nc(N)c(C#N)c(N)c32)cc1 (stereo not given),GI50,CCRF-CEM leukemia,2.85 µM
same,TGI,CCRF-CEM leukemia,7.67 µM
same,GI50,LOX IMVI melanoma,1.6 µM
same,TGI,LOX IMVI melanoma,3.11 µM
same,GI50,EKVX NSCLC,1.73 µM
same,TGI,EKVX NSCLC,3.2 µM
same,GI50,786-0 renal,1.65 µM
same,TGI,786-0 renal,3.01 µM
same,GI50,A549 NSCLC,2.19 µM
same,TGI,A549 NSCLC,4.21 µM
same,GI50,OVCAR-8 ovarian,1.64 µM
same,TGI,OVCAR-8 ovarian,3.06 µM
same,GI50,MALME-3M melanoma,1.68 µM
same,TGI,MALME-3M melanoma,3.13 µM
same,GI50,SF-539 CNS,1.64 µM
same,TGI,SF-539 CNS,3 µM
same,GI50,PC-3 prostate,1.6 µM
same,TGI,PC-3 prostate,3.11 µM
same,GI50,SK-MEL-2 melanoma,1.72 µM
same,TGI,SK-MEL-2 melanoma,3.59 µM
same,GI50,HS 578T breast,2.27 µM
same,TGI,HS 578T breast,5.54 µM
same,GI50,UO-31 renal,1.39 µM
same,TGI,UO-31 renal,2.68 µM
same,GI50,NCI-H23 lung,1.67 µM
same,TGI,NCI-H23 lung,3.31 µM
same,GI50,MCF7 breast,1.95 µM
same,TGI,MCF7 breast,4.72 µM
same,GI50,HT29 colon,2.31 µM
same,TGI,HT29 colon,4.83 µM
same,GI50,SK-MEL-28 melanoma,1.75 µM
same,TGI,SK-MEL-28 melanoma,3.2 µM
same,GI50,TK-10 renal,1.74 µM
same,TGI,TK-10 renal,3.12 µM
same,GI50,UACC-257 melanoma,1.99 µM
same,TGI,UACC-257 melanoma,3.49 µM
same,GI50,ACHN renal,1.76 µM
same,TGI,ACHN renal,3.15 µM
same,GI50,RPMI-8226 leukemia,2.47 µM
same,TGI,RPMI-8226 leukemia,6.56 µM
same,GI50,HCT-15 colon,1.72 µM
same,TGI,HCT-15 colon,3.3 µM
same,GI50,OVCAR-4 ovarian,1.66 µM
same,TGI,OVCAR-4 ovarian,3.15 µM
same,GI50,SNB-75 CNS,1.46 µM
same,TGI,SNB-75 CNS,3.21 µM
same,GI50,HOP-62 NSCLC,1.71 µM
same,TGI,HOP-62 NSCLC,3.18 µM
same,GI50,OVCAR-3 ovarian,1.75 µM
same,TGI,OVCAR-3 ovarian,3.13 µM
same,GI50,M14 melanoma,1.76 µM
same,TGI,M14 melanoma,3.41 µM
same,GI50,SF-268 CNS,1.62 µM
same,TGI,SF-268 CNS,3.04 µM
same,GI50,HCT-116 colon,1.82 µM
same,TGI,HCT-116 colon,3.37 µM
same,GI50,MDA-MB-231 breast,1.81 µM
same,TGI,MDA-MB-231 breast,3.28 µM
same,GI50,HOP-92 NSCLC,1.84 µM
same,TGI,HOP-92 NSCLC,3.55 µM
same,GI50,A498 renal,1.91 µM
same,TGI,A498 renal,3.44 µM
same,GI50,RXF 393 renal,1.65 µM
same,TGI,RXF 393 renal,3.01 µM
same,GI50,U251 CNS,1.81 µM
same,TGI,U251 CNS,3.22 µM
same,GI50,K-562 leukemia,2.66 µM
same,TGI,K-562 leukemia,8.44 µM
same,GI50,BT-549 breast,1.56 µM
same,TGI,BT-549 breast,2.9 µM
same,GI50,HL-60(TB) leukemia,1.86 µM
same,TGI,HL-60(TB) leukemia,3.99 µM
same,GI50,SF-295 CNS,1.55 µM
same,TGI,SF-295 CNS,2.89 µM
same,GI50,SK-MEL-5 melanoma,1.77 µM
same,TGI,SK-MEL-5 melanoma,3.15 µM
same,GI50,NCI-H460 lung,2.13 µM
same,TGI,NCI-H460 lung,4.36 µM
same,GI50,SK-OV-3 ovarian,1.78 µM
same,TGI,SK-OV-3 ovarian,3.17 µM
same,GI50,HCC-2998 colon,1.73 µM
same,TGI,HCC-2998 colon,3.19 µM
same,GI50,MDA-MB-435,1.69 µM
same,TGI,MDA-MB-435,3.16 µM
same,GI50,KM12 colon,1.61 µM
same,TGI,KM12 colon,3.05 µM
same,GI50,DU-145 prostate,1.82 µM
same,TGI,DU-145 prostate,3.21 µM
same,GI50,T-47D breast,1.9 µM
same,TGI,T-47D breast,4.63 µM
same,GI50,UACC-62 melanoma,1.6 µM
same,TGI,UACC-62 melanoma,2.99 µM
same,GI50,OVCAR-5 ovarian,1.74 µM
same,TGI,OVCAR-5 ovarian,3.35 µM
same,GI50,SW-620 colon,1.95 µM
same,TGI,SW-620 colon,4.08 µM
same,GI50,MOLT-4 leukemia,1.96 µM
same,TGI,MOLT-4 leukemia,5.61 µM
same,GI50,NCI-H226 lung,1.75 µM
same,TGI,NCI-H226 lung,3.22 µM

# Source: PubChem BioAssay (NCI)
